In patent US8563599B2, “Methods for synthesizing glycinols, glyceollins I and II, compositions of selected intermediates, and therapeutic uses thereof” (The United States of America, represented by the Secretary …, priority 2008, dated 2013):
Read-outs that look alike come from different tables or passages of the source.

What was measured:
NCI/ADR-RES cells = test: Growth inhibition assay (NCI method, sulforhodamine B), NCI/ADR-RES; assay type: cell-based, human; conditions: for GI50: read-out: GI50 (μM) NCI/ADR-RES; for fall-off in activity in NCI/ADR-RES versus MCF7: multidrug resistant cell line over-expressing Pgp
ABTS antioxidant assay = conditions: for Trolox Equivalents (μmol/μmol): IC50 compared to IC50 of trolox; for IC50: concentration causing 50% reduction in ABTS absorbance, 2 min, room temperature
Method: This example illustrates how the biological data pertaining to antioxidant properties of the compounds was obtained.
The antioxidant activity of each test agent was assayed by a colorimetric assay described in the literature that utilizes 2,2′-azinobis-3-ethylbenzothiazoline-6-sulfonic acid (ABTS). ABTS has an intense blue-green color in its free radical form, but is colorless without the free radical. Free radical ABTS was generated by reacting 7 mM ABTS with 2.45 mM potassium persulfate in water for 24-48 hr at room temperature in the dark. Test agents were diluted in 50/50 phosphate buffered saline (PBS)/ethanol to a series of five concentrations, then added to a 96 well half-area plate using 50 μl per well with four wells for each agent concentration. Four control wells containing 50/50 PBS/ethanol without test agents were setup for comparison for each test agent. Trolox, a water-soluble form of vitamin E commonly employed as an antioxidant standard, was also tested in each set of experiments. The free radical ABTS solution was diluted with 50/50 PBS/ethanol to give an absorbance of 1.4 absorbance units at 734 nm, and was then added 50 μl per well to two of the four wells for each condition. The other two wells for each condition received 50 μl of 50/50 PBS/ethanol without ABTS to provide background correction absorbance readings. All dilution and plate loading operations were performed on a Packard Multiprobe II HTS automated liquid handling system. […] Readings for wells with ABTS were background corrected using the corresponding wells containing matching test agent levels without ABTS. The background corrected absorbance of each test agent concentration was then compared to the control wells without agent to determine the percent decrease in color intensity, corresponding to the percent of ABTS free radical reduction. A fit of percent absorbance decrease versus test agent concentration was then used to estimate the concentration causing a 50% reduction in absorbance, called the IC50. The test agent IC50 values were then compared to the IC50 of trolox to calculate the trolox equivalents (TE, moles of trolox needed to give the same level of antioxidant activity as one mole of test agent) for each agent. Smaller IC50 values or larger TE values indicate higher levels of antioxidant activity.

MCF7 cells = test: Growth inhibition assay (NCI method, sulforhodamine B), MCF7; assay type: cell-based, human; conditions: read-out: GI50 (μM) MCF7
MCF12A cells = test: Growth inhibition assay (NCI method, sulforhodamine B), MCF12A; assay type: cell-based, human; conditions: for GI50: read-out: GI50 (μM) MCF12A
[1] = Homo sapiens, NCI/ADR-RES, 48 h
[2] = multidrug resistant cell line, 48 hr
[3] = human breast cancer cells, 48 hr, 10% serum
[4] = non-cancerous 'normal' human breast epithelial cells, 48 hr
[5] = Homo sapiens, NCI/ADR-RES, multidrug resistant cell line, 48 hr
[6] = MCF7, human breast cancer cells, 48 hr, 10% serum
[7] = MCF-12A, non-cancerous 'normal' human breast epithelial cells, 48 hr

SMILES | Trolox Equivalents (μmol/μmol) (ABTS antioxidant assay) | IC50 (ABTS antioxidant assay) [µM] | GI50 (NCI/ADR-RES cells; [2]) [µM] | GI50 (MCF7 cells; [3]) [µM] | GI50 (MCF12A cells; [4]) [µM] | other results
CC(C)(C)[Si](C)(C)Oc1ccc(C2(O)COc3cc(OCc4ccccc4)ccc3C2O)c(OCc2ccccc2)c1 (racemic) [2 (+/−), (+) 4′-(t-Butyldimethylsilyloxy)-2′,7-dibenzyloxy-isoflavan-3,4-diol] | 0.008 ± 0.006 | > 100 |  |  |  | GI50 (NCI/ADR-RES cells; [1]): 120 µM; fall-off in activity in NCI/ADR-RES versus MCF7 (NCI/ADR-RES cells): ca. 100 fold; antioxidant activity relative to the standards daidzein and genistein (ABTS antioxidant assay; ABTS assay, summary of Table 1): weak activity; GI50 (MCF7 cells; Homo sapiens, MCF7, 48 h): 10 µM; GI50 (MCF12A cells; Homo sapiens, MCF-12A, 48 h): 20 µM
CC(C)(C)[Si](C)(C)Oc1ccc(C2(O)COc3cc(O)ccc3C2O)c(O)c1 (racemic) [3 (+/−), (+) 4′-(t-Butyldimethylsilyloxy)-2′,7-dihydroxy-isoflavan-3,4-diol] | 2.0 ± 0.1 | 4.6 ± 0.3 |  |  |  | GI50 (NCI/ADR-RES cells; [1]): 21 µM; GI50 (MCF7 cells; Homo sapiens, MCF7, 48 h): 31 µM; GI50 (MCF12A cells; Homo sapiens, MCF-12A, 48 h): 36 µM
CC(C)(C)[Si](C)(C)Oc1ccc2c(c1)OC1c3ccc(O)cc3OCC21O (racemic) [4 (+/−), (+) 9-(t-Butyldimethylsilyloxy)-glycinol] | 2.0 ± 0.1 | 4.6 ± 0.2 | 2.9 | 4.1 | 4 | 
CC(C)(C)[Si](C)(C)Oc1ccc2c(c1)OC1c3ccc(O)cc3OCC21O (single isomer, unassigned; (+)) [4 (+), (+) 9-(t-Butyldimethylsilyloxy)-glycinol] | 1.9 ± 0.1 | 5 ± 0.4 | 13 | 14 | 15 | 
CC(C)(C)[Si](C)(C)Oc1ccc2c(c1)OC1c3ccc(O)cc3OCC21O (single isomer, unassigned; (-)) [4 (−), (−) 9-(t-Butyldimethylsilyloxy)-glycinol] | 1.9 ± 0.1 | 5 ± 0.5 | 8.7 | 7.1 | 11 | 
O=c1c(-c2ccc(O)cc2)coc2cc(O)ccc12 [Daidzein, reference compound] | 3.0 ± 0.1 | 3.3 ± 0.2 |  |  |  | GI50 (NCI/ADR-RES cells; [5]): 150 µM; GI50 (MCF7 cells; [6]): 200 µM; GI50 (MCF12A cells; [7]): 120 µM
O=c1c(-c2ccc(O)cc2)coc2cc(O)cc(O)c12 [Genistein, reference compound] | 3.0 ± 0.1 | 3.3 ± 0.1 |  |  |  | GI50 (NCI/ADR-RES cells; [5]): 17 µM; GI50 (MCF7 cells; [6]): 46 µM; GI50 (MCF12A cells; [7]): 22 µM
CC(=O)O[C@H]1C(=O)[C@@]2(C)[C@H]([C@H](OC(=O)c3ccccc3)[C@]3(O)C[C@H](OC(=O)[C@H](O)[C@@H](NC(=O)c4ccccc4)c4ccccc4)C(C)=C1C3(C)C)[C@]1(OC(C)=O)CO[C@@H]1C[C@@H]2O [paclitaxel, reference compound] |  |  |  |  |  | fall-off in activity in NCI/ADR-RES versus MCF7 (NCI/ADR-RES cells): ~1,000 fold; potency in MCF7 versus MCF12A (differential in activity) (MCF12A cells; cancer versus normal breast cells): nearly equivalent
